Key:
COX-1 enzyme = target: T1, COX-1 enzyme (Ovis aries, UniProt P05979); test: Cyclooxygenase inhibitory assay (oxygen consumption, arachidonic acid substrate), COX-1; type: biochemical; details: for COX-1 enzyme inhibition: at 100 ppm (FIG. 1)
T1 sequence (P05979 25-600): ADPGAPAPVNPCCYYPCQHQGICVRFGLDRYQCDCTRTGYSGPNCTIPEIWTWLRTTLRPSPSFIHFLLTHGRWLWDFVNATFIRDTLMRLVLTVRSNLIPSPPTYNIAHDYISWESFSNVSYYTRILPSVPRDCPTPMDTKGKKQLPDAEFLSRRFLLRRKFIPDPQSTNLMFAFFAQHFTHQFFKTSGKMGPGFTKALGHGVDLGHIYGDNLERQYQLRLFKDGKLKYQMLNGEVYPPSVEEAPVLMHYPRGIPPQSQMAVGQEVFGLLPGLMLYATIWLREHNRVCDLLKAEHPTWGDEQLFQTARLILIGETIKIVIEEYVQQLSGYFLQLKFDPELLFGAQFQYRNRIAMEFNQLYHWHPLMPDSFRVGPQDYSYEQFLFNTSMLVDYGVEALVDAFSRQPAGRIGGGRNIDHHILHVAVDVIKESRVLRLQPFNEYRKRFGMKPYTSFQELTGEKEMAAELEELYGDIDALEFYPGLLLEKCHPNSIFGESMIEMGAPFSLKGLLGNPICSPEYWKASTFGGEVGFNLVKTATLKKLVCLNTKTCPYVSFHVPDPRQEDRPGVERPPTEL
Protocol: (§1) Cyclooxygenase enzyme inhibitory assay of the extracts and compounds were carried out using COX-1 and COX-2 enzymes according to the previously published procedures (Jayaprakasam, B. et al., 2006. J. Agric. Food Chem., 54, 5375-5381).
(§2) Cyclooxygenase Inhibitory Activity. The rate of oxygen consumption during the initial phase of the enzyme-mediated reaction, with arachidonic acid as substrate was measured using a Model 5300 biological oxygen monitor (Yellow Spring Instrument, Inc., Yellow Spring, Ohio). The test compounds, extracts and positive controls were dissolved in DMSO and an aliquot of 10 μL of each was added to the reaction chamber containing 0.6 mL of Tris buffer (0.1 M, pH 7) and, 1 mM of phenol, hemoglobin (17 μg). COX-1 or -2 enzymes (10 μL) was added to the chamber and incubated for 3 min. The reaction was initiated by the addition of arachidonic acid (10 μL of 1 mg/mL solution). Instantaneous inhibition was measured by using Quick Log Data acquisition and control computer software (Strawberry Tree Inc., Sunnyvale, Calif., USA). The percent inhibition was calculated with respect to DMSO control. Each sample was assayed twice and the standard deviation was calculated for n=2. Aspirin, Celebrex and Vioxx were used as positive controls.

COX-2 enzyme = target: T2, COX-2 enzyme (Homo sapiens, UniProt P35354); test: Cyclooxygenase inhibitory assay (oxygen consumption, arachidonic acid substrate), COX-2; type: biochemical; details: for COX-2 enzyme inhibition: at 100 ppm (FIG. 1)
T2 sequence (P35354 18-604): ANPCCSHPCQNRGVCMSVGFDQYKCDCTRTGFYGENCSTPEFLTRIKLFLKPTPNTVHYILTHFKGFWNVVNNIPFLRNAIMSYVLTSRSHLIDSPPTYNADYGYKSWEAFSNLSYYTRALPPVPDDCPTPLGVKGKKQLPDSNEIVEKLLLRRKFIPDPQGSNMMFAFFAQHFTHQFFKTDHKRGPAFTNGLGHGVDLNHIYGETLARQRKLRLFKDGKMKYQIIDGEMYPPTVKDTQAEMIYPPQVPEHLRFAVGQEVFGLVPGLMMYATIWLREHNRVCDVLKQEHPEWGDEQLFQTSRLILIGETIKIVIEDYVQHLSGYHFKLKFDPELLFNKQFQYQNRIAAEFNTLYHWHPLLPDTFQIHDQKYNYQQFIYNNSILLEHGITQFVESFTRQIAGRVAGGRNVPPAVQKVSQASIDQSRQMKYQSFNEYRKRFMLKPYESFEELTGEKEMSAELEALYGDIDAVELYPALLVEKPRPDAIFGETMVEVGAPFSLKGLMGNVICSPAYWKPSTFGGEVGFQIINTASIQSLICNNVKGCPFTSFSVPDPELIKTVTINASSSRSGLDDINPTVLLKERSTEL
Protocol: as §1, §2

Row | SMILES | COX-1 enzyme inhibition (COX-1 enzyme) | COX-2 enzyme inhibition (COX-2 enzyme) | further results
1 | O=Cc1cc(O)c(O)cc1O [K, 2,4,5-trihydroxybenzaldehyde] | not active | not active | 
2 | O=Cc1ccccc1 [A, Benzaldehyde] | not active | not active | 
3 | O=Cc1ccc(O)c(O)c1O [Compound J, 2,3,4-trihydroxybenzaldehyde] |  |  | activity on COX-1 enzyme (COX-1 enzyme; even at a 500 ppm concentration (FIG. 2)): not active; selective inhibition of COX-2 enzyme (COX-2 enzyme; FIG. 1, 100 ppm, versus COX-1): selectively inhibited COX-2 enzyme; IC50 (COX-2 enzyme; dose response (FIG. 2), read-out: IC50, inhibition of COX-2 (converted)): ~64.9 µM
4 | O=Cc1cccc(O)c1 [C, 3-hydroxybenzaldehyde] |  |  | selective inhibition of COX-1 enzyme (COX-1 enzyme; FIG. 1, 100 ppm, versus COX-2): selectively inhibited COX-1 enzyme

Source: US20090018211A1, “Method for inhibiting of COX2 and inflammation with phenolic aldehydes” (Board of Trustees of Michigan State University, priority 2007, published 2009)
